The values below come from patent US6630499B1, “Control of arthropods in animals” (Aventis CropScience, S.A., priority 1998, dated 2003).

What all share (format): in vivo
The test system of data set [1] is ticks (Rhipicephalus sanguineus). The experiment in a line: Control of ticks on treated dogs (Biological Examples 1-3). The conditions noted are these: 10 mg/kg; for % Control 1 DPT (Fleas/Ticks): Ticks: dogs, 30 mg/mL in 1:1 dimethyl sulfoxide/corn oil, 1 day post-treatment, versus placebo group. The procedure:
(§1) All dogs were infested with cat fleas (Ctenocephalides felis) and with ticks (Rhipicephalus sanguineus) 1 day prior to administration of the compound. Cats were only infested with fleas. The initial flea and tick counts were performed 1 day after the administration of the compounds. At 7, 14, 21 and 28 days after treatment the dogs were re-infested with ticks and 8, 15, 22 and 29 days after treatment the dogs and cats were re-infested with fleas. At 1, 9, 16, 23 and 30 days after treatment the control of fleas and ticks in treated dogs and cats was determined versus a group of infested dogs and cats which received a placebo consisting of a 1:1 volume/volume solution of dimethyl sulfoxide and corn oil. To determine the efficacies of the compounds, the arthropods were combed from the animals and counted.
(§2) The compounds listed below were formulated and tested as described in Biological Example 1, again at the dosage level of active ingredient of 10 mg/kg in dogs and 20 mg/kg in cats. Results at 1 DPT (day post-treatment) are tabulated below, where the compound numbers are the same as those listed in Tables 1, 2, 4, 5, 6, 7, 8, 9, 10, 11, 12 and 13 hereinabove.
(§3) Testing was carried out as described in Biological Example 1. […] The Huang et al compound was deemed to have insufficient activity to be tested in cats.

A further data set can be described thus: Emesis in treated dogs. The conditions noted are these: 10 mg/kg; for % Emesis: dogs. How it is done: (§4) By the term “emesis” is meant vomiting. Generally an emetic substance elicits emesis in less than 24 hours after administration, usually less than 8 hours, more usually less than 2 hours. By the term “substantially non-emetic” is meant that, generally, when a compound or composition of the invention is administered to a population of animals, more than 70% (or at least ⅔) of the animals are free of emesis. Preferably, more than 80%, most preferably more than 90%, of said population is free of emesis.
(§5) In the animals treated with the compounds above, there was substantially no emesis after 2, 8 and 24 hours. Generally long-term control of fleas and ticks was provided in dogs. In the cats treated, there was commercially acceptable control of fleas for at least one day post treatment.
as §2

Data set [2] has as its system cat fleas (Ctenocephalides felis). The experiment in a line: Control of cat fleas on treated dogs (Biological Examples 1-3). The conditions noted are these: 10 mg/kg; for % Control 1 DPT (Fleas/Ticks): Fleas: dogs, 30 mg/mL in 1:1 dimethyl sulfoxide/corn oil, 1 day post-treatment, versus placebo group. How it is done: as §1, §2, §3
Data set [3] has the same test system. Nature of the data set: Control of cat fleas on treated cats (Biological Examples 1-3). The conditions noted are these: cats, 20 mg/kg, 30 mg/mL in 1:1 dimethyl sulfoxide/corn oil, 1 day post-treatment, versus placebo group. How it is done:
as §1, §2, §3

A further data set in a line: Emesis in treated cats. The conditions noted are these: cats, 20 mg/kg. How it is done: as §4, §5, §2

With `CCOC(C)C(=O)N(C)c1c([S+]([O-])C(F)(F)F)c(C#N)nn1-c1c(Cl)cc(C(F)(F)F)cc1Cl` (mixture of isomers) [Compound 122-1], the “% Control 1 DPT (Fleas/Ticks): Ticks” value in data set [1] came to 95%. Further, the “% Emesis” value in “Emesis in treated dogs” is reported as 0%. In addition, the “% Control 1 DPT (Fleas/Ticks): Fleas” value in data set [2] is recorded as 100%.

`CN(C(=O)C1CCCCO1)c1c(SC(F)(F)F)c(C#N)nn1-c1c(Cl)cc(C(F)(F)F)cc1Cl` (racemic) [Compound 121-1]: in data set [3], the “% Control 1 DPT (Fleas)” value came to 100%. Moreover, the “% Emesis” value in the data set “Emesis in treated cats” came out at 0%.

Turning to `CN(C(=O)C1CCCO1)c1c(SC(F)(F)F)c(C#N)nn1-c1c(Cl)cc(C(F)(F)F)cc1Cl` [(R)1-7], the “% Control 1 DPT (Fleas)” value in data set [3] was 100%. The “% Emesis” value in the data set “Emesis in treated cats” came to 0%.

For the molecule `CN(C(=O)C1CCCO1)c1c(SC(F)(F)F)c(C#N)nn1-c1c(Cl)cc(C(F)(F)F)cc1Cl` [(S)1-7], the “% Control 1 DPT (Fleas)” value in data set [3] worked out at 99%. Also, the “% Emesis” value in the data set “Emesis in treated cats” stood at 0%.

For `N#Cc1nn(-c2c(Cl)cc(C(F)(F)F)cc2Cl)c(N(CC2CC2)C(=O)C2CCCO2)c1SC(F)(F)F` (stereo not shown) [Compound 7-7], in data set [1], the “% Control 1 DPT (Fleas/Ticks): Ticks” value is on record as 66%. In addition, the “% Emesis” value in the data set “Emesis in treated dogs” is reported as 0%. Also, the “% Control 1 DPT (Fleas/Ticks): Fleas” value in data set [2] is recorded as 29%.

Turning to `CCOCC(=O)N(CC1CC1)c1c(S(=O)(=O)C(F)(F)F)c(C#N)nn1-c1c(Cl)cc(C(F)(F)F)cc1Cl` [Compound 28-5], in data set [1], the “% Control 1 DPT (Fleas/Ticks): Ticks” value came out at 74%. Further, the “% Emesis” value in “Emesis in treated dogs” was found to be 0%. In addition, the “% Control 1 DPT (Fleas/Ticks): Fleas” value in data set [2] is listed as 100%.

As to `COCCC(=O)N(C)c1c(SC(F)(F)F)c(C#N)nn1-c1c(Cl)cc(C(F)(F)F)cc1Cl` [Compound 37-1], in data set [3], the “% Control 1 DPT (Fleas)” value stood at 76%. In addition, the “% Emesis” value in “Emesis in treated cats” is 0%.

For the molecule `CCOCCC(=O)N(C)c1c(SC(F)(F)F)c(C#N)nn1-c1c(Cl)cc(C(F)(F)F)cc1Cl` [Compound 38-1], in data set [3], the “% Control 1 DPT (Fleas)” value is reported as 87%. In the data set “Emesis in treated cats”, the “% Emesis” value was determined as 0%.

Regarding `CCCOC(=O)N(CCC)c1c(SC(F)(F)F)c(C#N)nn1-c1c(Cl)cc(C(F)(F)F)cc1Cl` [Compound 78-1], in data set [1], the “% Control 1 DPT (Fleas/Ticks): Ticks” value was 94%. Further, the “% Emesis” value in “Emesis in treated dogs” is 0%. Also, the “% Control 1 DPT (Fleas/Ticks): Fleas” value in data set [2] worked out at 96%.

For `CN(C(=O)C1CC1)c1c(SC(F)(F)F)c(C#N)nn1-c1c(Cl)cc(C(F)(F)F)cc1Cl` [Compound 117-1], the “% Control 1 DPT (Fleas)” value in data set [3] was 45%. Moreover, in “Emesis in treated cats”, the “% Emesis” value is 0%.

Take `CCOC(C)(C)C(=O)N(C)c1c(SC(F)(F)F)c(C#N)nn1-c1c(Cl)cc(C(F)(F)F)cc1Cl` [Compound 119-1]: the “% Control 1 DPT (Fleas)” value in data set [3] worked out at 99%. Moreover, the “% Emesis” value in the data set “Emesis in treated cats” turned out to be 0%.

For the molecule `CCCC(=O)N(C)c1c(SC(F)(F)F)c(C#N)nn1-c1c(Cl)cc(C(F)(F)F)cc1Cl` [Compound 124-1], the “% Control 1 DPT (Fleas)” value in data set [3] is reported as 92%. In addition, in “Emesis in treated cats”, the “% Emesis” value was found to be 0%.

With `N#Cc1nn(-c2c(Cl)cc(C(F)(F)F)cc2Cl)c(N=CNCC(F)(F)F)c1SC(F)(F)F` [Compound 211-1], in data set [1], the “% Control 1 DPT (Fleas/Ticks): Ticks” value was 51%. Also, the “% Emesis” value in “Emesis in treated dogs” is 0%. Besides, in data set [2], the “% Control 1 DPT (Fleas/Ticks): Fleas” value is recorded as 99%.

Take `N#Cc1nn(-c2c(Cl)cc(C(F)(F)F)cc2Cl)c(N=CNCc2ccccc2)c1SC(F)(F)F` [Compound 224]: the “% Control 1 DPT (Fleas/Ticks): Ticks” value in data set [1] amounted to 6%. For the same molecule, the “% Emesis” value in “Emesis in treated dogs” was 0%. In addition, in data set [2], the “% Control 1 DPT (Fleas/Ticks): Fleas” value was 38%.

In the case of `COCC(=O)Nc1c(SC(F)(F)F)c(C#N)nn1-c1c(Cl)cc(C(F)(F)F)cc1Cl` [Huang et al compound, 1-(2,6-dichloro-4-trifluoromethylphenyl)-3-cyano-4-trifluoromethylthio-5-(methoxyacetamido)pyrazole, reference compound], the “control of ticks after 9 DPT” value in data set [1] (group of 3 dogs, 9 DPT) is recorded as below 50%. In addition, the emesis result in “Emesis in treated dogs” (group of 3 dogs) was “no emesis (0/3)”. Also, the “control of fleas after 9 DPT” value in data set [2] (group of 3 dogs, 9 DPT) is reported as below 50%.
